{"source": "paper PMC5218480", "about": "(PLoS ONE, 2017)", "system": "MV-4-11 cells", "assay": "Gene expression microarray analysis (Affymetrix PrimeView) and GSEA", "assay_type": "cell-based, human", "set-up": "RFU PODN (11730768_x_at) / Fold change /veh PODN (11730768_x_at) / RFU LINC00158 (11744669_a_at) / Fold change /veh LINC00158 (11744669_a_at) / RFU DUSP10 (11751237_a_at) / Fold change /veh DUSP10 (11751237_a_at) / RFU ID3 (11757404_x_at) / Fold change /veh ID3 (11757404_x_at) / RFU PLEKHG5 (11737974_s_at) / Fold change /veh PLEKHG5 (11737974_s_at) / RFU LRRC4B (11730491_at) / Fold change /veh LRRC4B (11730491_at) / RFU GIMAP4 (11747438_a_at) / Fold change /veh GIMAP4 (11747438_a_at) / RFU KRT8 (11758183_x_at) / Fold change /veh KRT8 (11758183_x_at) / RFU CNN1 (11734310_a_at) / Fold change /veh CNN1 (11734310_a_at) / RFU VPS37D (11726825_at) / Fold change /veh VPS37D (11726825_at) / RFU C10orf10 (11716522_x_at) / Fold change /veh C10orf10 (11716522_x_at) / RFU KIR2DL2 /// KIR2DL4 /// KIR2DL5A /// KIR2DL5B /// KIR2DS1 /// KIR2DS2 /// KIR2DS3 /// KIR2DS4 /// KIR3DL3 /// KIR3DL3 /// KIR3DS1 (11738374_at) / Fold change /veh KIR2DL2 /// KIR2DL4 /// KIR2DL5A /// KIR2DL5B /// KIR2DS1 /// KIR2DS2 /// KIR2DS3 /// KIR2DS4 /// KIR3DL3 /// KIR3DL3 /// KIR3DS1 (11738374_at) / RFU C1QL1 (11718748_at) / Fold change /veh C1QL1 (11718748_at) / RFU TMPRSS4 (11747572_a_at) / Fold change /veh TMPRSS4 (11747572_a_at) / RFU HAMP (11756126_x_at) / Fold change /veh HAMP (11756126_x_at) / RFU RNFT2 (11725882_a_at) / Fold change /veh RNFT2 (11725882_a_at) / RFU NR4A2 (11747474_a_at) / Fold change /veh NR4A2 (11747474_a_at) / RFU ABCC12 (11746883_a_at) / Fold change /veh ABCC12 (11746883_a_at) / RFU TMEM136 (11760407_x_at) / Fold change /veh TMEM136 (11760407_x_at) / RFU CLDN22 /// WWC2 (11732394_at) / Fold change /veh CLDN22 /// WWC2 (11732394_at) / RFU HLA-DPB1 (11760878_x_at) / Fold change /veh HLA-DPB1 (11760878_x_at) / RFU SPINT1 (11716480_a_at) / Fold change /veh SPINT1 (11716480_a_at) / RFU GAP43 (11754022_s_at) / Fold change /veh GAP43 (11754022_s_at) / RFU A4GNT (11735810_at) / Fold change /veh A4GNT (11735810_at) / RFU PRB3 (11715151_x_at) / Fold change /veh PRB3 (11715151_x_at) / RFU TUBB4B (11761932_at) / Fold change /veh TUBB4B (11761932_at) / RFU CAPN14 (11732068_a_at) / Fold change /veh CAPN14 (11732068_a_at) / RFU TMCC2 (11721928_a_at) / Fold change /veh TMCC2 (11721928_a_at) / RFU IRGQ (11745062_a_at) / Fold change /veh IRGQ (11745062_a_at) / RFU FAM174B (11720279_a_at) / Fold change /veh FAM174B (11720279_a_at) / RFU TMPRSS4 (11748680_a_at) / Fold change /veh TMPRSS4 (11748680_a_at) / RFU FAM212B (11763350_a_at) / Fold change /veh FAM212B (11763350_a_at) / RFU PLEKHG5 (11743358_a_at) / Fold change /veh PLEKHG5 (11743358_a_at) / RFU ZSCAN30 (11745921_a_at) / Fold change /veh ZSCAN30 (11745921_a_at) / RFU CMKLR1 (11741424_a_at) / Fold change /veh CMKLR1 (11741424_a_at) / RFU LOC101060620 /// MAPK8IP1 (11723275_at) / Fold change /veh LOC101060620 /// MAPK8IP1 (11723275_at) / RFU SPTSSB (11747773_x_at) / Fold change /veh SPTSSB (11747773_x_at) / RFU PRSS12 (11739890_at) / Fold change /veh PRSS12 (11739890_at) / RFU BIN1 (11741810_x_at) / Fold change /veh BIN1 (11741810_x_at) / RFU WNT11 (11732464_a_at) / Fold change /veh WNT11 (11732464_a_at) / RFU C10orf10 (11716521_a_at) / Fold change /veh C10orf10 (11716521_a_at) / RFU C5orf56 (11738089_at) / Fold change /veh C5orf56 (11738089_at) / RFU CYB561 (11721691_x_at) / Fold change /veh CYB561 (11721691_x_at) / RFU ANKRD19P (11752326_a_at) / Fold change /veh ANKRD19P (11752326_a_at) / RFU OR2T12 /// OR2T33 /// OR2T8 (11738714_s_at) / Fold change /veh OR2T12 /// OR2T33 /// OR2T8 (11738714_s_at) / RFU VCAN (11748164_a_at) / Fold change /veh VCAN (11748164_a_at) / RFU JSRP1 (11732532_at) / Fold change /veh JSRP1 (11732532_at) / RFU KRTAP10-11 (11738290_x_at) / Fold change /veh KRTAP10-11 (11738290_x_at) / RFU MYO3A (11730013_a_at) / Fold change /veh MYO3A (11730013_a_at) / RFU EBF3 (11725865_a_at) / Fold change /veh EBF3 (11725865_a_at) / RFU CAMK2N1 (11719241_x_at) / Fold change /veh CAMK2N1 (11719241_x_at) / RFU C5orf56 (11738088_a_at) / Fold change /veh C5orf56 (11738088_a_at) / RFU OLFML3 (11715873_a_at) / Fold change /veh OLFML3 (11715873_a_at) / RFU LOC100653217 /// NTM (11731650_a_at) / Fold change /veh LOC100653217 /// NTM (11731650_a_at) / RFU MAPK11 (11762145_a_at) / Fold change /veh MAPK11 (11762145_a_at) / RFU FIZ1 (11724087_x_at) / Fold change /veh FIZ1 (11724087_x_at) / RFU OASL (11726364_x_at) / Fold change /veh OASL (11726364_x_at) / RFU SOX15 (11748057_x_at) / Fold change /veh SOX15 (11748057_x_at) / RFU CD79A (11719716_a_at) / Fold change /veh CD79A (11719716_a_at) / RFU HIST1H1D (11736915_at) / Fold change /veh HIST1H1D (11736915_at) / RFU CASKIN2 (11723855_a_at) / Fold change /veh CASKIN2 (11723855_a_at) / RFU LOC730098 (11760151_x_at) / Fold change /veh LOC730098 (11760151_x_at) / RFU OR4N2 (11742367_at) / Fold change /veh OR4N2 (11742367_at) / RFU PRRT2 (11749266_a_at) / Fold change /veh PRRT2 (11749266_a_at) / RFU SNX32 (11753110_a_at) / Fold change /veh SNX32 (11753110_a_at) / RFU CDHR5 (11726645_a_at) / Fold change /veh CDHR5 (11726645_a_at) / RFU RCAN1 (11760418_a_at) / Fold change /veh RCAN1 (11760418_a_at) / RFU FAM167A (11723789_a_at) / Fold change /veh FAM167A (11723789_a_at) / RFU FAM26E (11764081_at) / Fold change /veh FAM26E (11764081_at) / RFU ISYNA1 (11749810_s_at) / Fold change /veh ISYNA1 (11749810_s_at) / RFU ACY1 (11761880_at) / Fold change /veh ACY1 (11761880_at) / RFU 11764098_at / Fold change /veh 11764098_at / RFU SAMD14 (11745864_x_at) / Fold change /veh SAMD14 (11745864_x_at) / RFU NPB (11741838_a_at) / Fold change /veh NPB (11741838_a_at) / RFU TMPRSS6 (11731388_a_at) / Fold change /veh TMPRSS6 (11731388_a_at) / RFU KRTAP10-2 (11738614_at) / Fold change /veh KRTAP10-2 (11738614_at) / RFU ARHGAP8 /// PRR5-ARHGAP8 (11727945_x_at) / Fold change /veh ARHGAP8 /// PRR5-ARHGAP8 (11727945_x_at) / RFU KRTAP5-7 /// NADSYN1 (11734609_at) / Fold change /veh KRTAP5-7 /// NADSYN1 (11734609_at) / RFU RASL12 (11751679_a_at) / Fold change /veh RASL12 (11751679_a_at) / RFU CDKN2B (11736163_a_at) / Fold change /veh CDKN2B (11736163_a_at) / RFU PRF1 (11729649_at) / Fold change /veh PRF1 (11729649_at) / RFU, ZNF638 /// ZNF638-IT1 / Fold change vs veh, ZNF638 /// ZNF638-IT1 / RFU, PANK3 / Fold change vs veh, PANK3 / RFU, SH3YL1 / Fold change vs veh, SH3YL1 / RFU, ZEB2 / Fold change vs veh, ZEB2 / RFU, NRIP1 / Fold change vs veh, NRIP1 / RFU, PTTG1IP / Fold change vs veh, PTTG1IP / RFU, CAPN2 / Fold change vs veh, CAPN2 / RFU, MED14 / Fold change vs veh, MED14 / RFU, SNORA58 / Fold change vs veh, SNORA58 / RFU, C1orf63 / Fold change vs veh, C1orf63 / RFU, LRRFIP1 / Fold change vs veh, LRRFIP1 / RFU, NDUFAF7 / Fold change vs veh, NDUFAF7 / RFU, SLC12A2 / Fold change vs veh, SLC12A2 / RFU, IBTK / Fold change vs veh, IBTK / RFU, ESF1 / Fold change vs veh, ESF1 / Fold change vs veh, TMEM50B / RFU, TAOK1 / Fold change vs veh, TAOK1 / RFU, ACBD3 / Fold change vs veh, ACBD3 / RFU, TMA16 / Fold change vs veh, TMA16 / RFU, RWDD3 / Fold change vs veh, RWDD3 / RFU, BCAT1 / Fold change vs veh, BCAT1 / RFU, EDEM3 / Fold change vs veh, EDEM3 / RFU, TMEM33 / Fold change vs veh, TMEM33 / RFU, WDR75 / Fold change vs veh, WDR75 / RFU, AHCTF1 / Fold change vs veh, AHCTF1 / RFU, TFRC / Fold change vs veh, TFRC / RFU, ZDHHC17 / Fold change vs veh, ZDHHC17 / RFU, NOM1 / Fold change vs veh, NOM1 / RFU, ARL8B / Fold change vs veh, ARL8B / RFU, ZBTB11 / Fold change vs veh, ZBTB11 / RFU, TAMM41 / Fold change vs veh, TAMM41 / RFU, KIAA1704 /// LOC100996395 / Fold change vs veh, KIAA1704 /// LOC100996395 / RFU, ING1 / Fold change vs veh, ING1 / RFU, TRMT61B / Fold change vs veh, TRMT61B / RFU, FUBP3 / Fold change vs veh, FUBP3 / RFU, TP53 / Fold change vs veh, TP53 / RFU, TNKS2 / Fold change vs veh, TNKS2 / RFU, ZFP14 / Fold change vs veh, ZFP14 / RFU, ACTR2 / Fold change vs veh, ACTR2 / RFU, PPP3R1 / Fold change vs veh, PPP3R1 / RFU, PIK3R1 / Fold change vs veh, PIK3R1 / RFU, HNRNPA1 / Fold change vs veh, HNRNPA1 / RFU, RNF170 / Fold change vs veh, RNF170 / RFU, ZNF28 / Fold change vs veh, ZNF28 / RFU, RNGTT / Fold change vs veh, RNGTT / RFU, OGT / Fold change vs veh, OGT / RFU, BRD1 / Fold change vs veh, BRD1 / RFU, MARS / Fold change vs veh, MARS / RFU, ZNF655 / Fold change vs veh, ZNF655 / RFU, FAHD1 / Fold change vs veh, FAHD1 / RFU, BDP1 / Fold change vs veh, BDP1 / RFU, LRRCC1 / Fold change vs veh, LRRCC1 / RFU, ARID1A / Fold change vs veh, ARID1A / RFU, ZNF146 / Fold change vs veh, ZNF146 / RFU, ZNF330 / Fold change vs veh, ZNF330 / RFU, GPN3 / Fold change vs veh, GPN3 / RFU, C9orf123 / Fold change vs veh, C9orf123 / RFU, N4BP2L2 / Fold change vs veh, N4BP2L2 / RFU, ARFIP1 / Fold change vs veh, ARFIP1 / RFU, FAM179B / Fold change vs veh, FAM179B / RFU, BCL10 / Fold change vs veh, BCL10 / RFU, UHRF1BP1L / Fold change vs veh, UHRF1BP1L / RFU, BET1 / Fold change vs veh, BET1 / RFU, CNOT2 / Fold change vs veh, CNOT2 / RFU, ZNF268 / Fold change vs veh, ZNF268 / Fold change vs veh, ZNF507 / RFU, DGCR2 / Fold change vs veh, DGCR2 / RFU, WDSUB1 / Fold change vs veh, WDSUB1 / Fold change vs veh, HSP90B1 /// MIR3652 / RFU, ADSS / Fold change vs veh, ADSS / RFU, GK / Fold change vs veh, GK / RFU, ZNF148 / Fold change vs veh, ZNF148 / RFU, TAF9 / Fold change vs veh, TAF9 / RFU, SLC1A5 / Fold change vs veh, SLC1A5 / RFU, SLMO2 / Fold change vs veh, SLMO2 / RFU, ABCC4 / Fold change vs veh, ABCC4 / RFU, LOC101060439 /// RAP1B / Fold change vs veh, LOC101060439 /// RAP1B / RFU, RFX7 / Fold change vs veh, RFX7 / RFU, GTPBP10 / Fold change vs veh, GTPBP10 / RFU, CNEP1R1 / Fold change vs veh, CNEP1R1 / RFU, BIVM-ERCC5 /// ERCC5 / Fold change vs veh, BIVM-ERCC5 /// ERCC5 / RFU, ILF3 / Fold change vs veh, ILF3 / RFU 11762660_at / Fold change /veh 11762660_at / RFU VCAN (11757783_s_at) / Fold change /veh VCAN (11757783_s_at) / RFU DDX43 (11728927_at) / Fold change /veh DDX43 (11728927_at) / RFU KRT8 (11758188_x_at) / Fold change /veh KRT8 (11758188_x_at) / RFU NKD1 (11759106_at) / Fold change /veh NKD1 (11759106_at) / RFU SRD5A1 (11742802_a_at) / Fold change /veh SRD5A1 (11742802_a_at) / RFU TPSAB1 /// TPSB2 (11721975_s_at) / Fold change /veh TPSAB1 /// TPSB2 (11721975_s_at) / RFU GSTM3 (11746129_a_at) / Fold change /veh GSTM3 (11746129_a_at) / RFU IL23R (11737362_x_at) / Fold change /veh IL23R (11737362_x_at) / RFU TMEM51 (11727254_a_at) / Fold change /veh TMEM51 (11727254_a_at) / RFU PIWIL2 (11732686_x_at) / Fold change /veh PIWIL2 (11732686_x_at) / RFU ORM1 (11744905_x_at) / Fold change /veh ORM1 (11744905_x_at) / RFU CCDC152 (11743942_at) / Fold change /veh CCDC152 (11743942_at) / RFU ECM1 (11717891_a_at) / Fold change /veh ECM1 (11717891_a_at) / RFU IL23R (11748794_a_at) / Fold change /veh IL23R (11748794_a_at) / RFU TNFAIP8L3 (11732012_x_at) / Fold change /veh TNFAIP8L3 (11732012_x_at) / RFU MBOAT4 (11741988_at) / Fold change /veh MBOAT4 (11741988_at) / RFU 11764193_at / Fold change /veh 11764193_at / RFU TMEM53 (11763286_at) / Fold change /veh TMEM53 (11763286_at) / RFU MAGEB2 (11727129_at) / Fold change /veh MAGEB2 (11727129_at) / RFU TMEM200A (11744735_a_at) / Fold change /veh TMEM200A (11744735_a_at) / RFU CCDC152 (11751479_a_at) / Fold change /veh CCDC152 (11751479_a_at) / RFU FAM211A (11726209_a_at) / Fold change /veh FAM211A (11726209_a_at) / RFU RGS16 (11746705_a_at) / Fold change /veh RGS16 (11746705_a_at) / RFU VCAN (11755009_s_at) / Fold change /veh VCAN (11755009_s_at) / RFU RHOB (11743442_s_at) / Fold change /veh RHOB (11743442_s_at) / RFU RGS16 (11720943_a_at) / Fold change /veh RGS16 (11720943_a_at) / RFU RGS16 (11720944_at) / Fold change /veh RGS16 (11720944_at) / RFU, VPS4B / Fold change vs veh, VPS4B / RFU, CREB1 / Fold change vs veh, CREB1 / RFU, DNAJC13 / Fold change vs veh, DNAJC13 / RFU, GNAQ / Fold change vs veh, GNAQ / RFU, CDK5R1 / Fold change vs veh, CDK5R1 / RFU, ZRANB3 / Fold change vs veh, ZRANB3 / RFU, CUL4A / Fold change vs veh, CUL4A / RFU, CCNY / Fold change vs veh, CCNY / RFU, UFL1 / Fold change vs veh, UFL1 / RFU, COG3 / Fold change vs veh, COG3 / RFU, DIAPH2 / Fold change vs veh, DIAPH2 / RFU, SKA2 / Fold change vs veh, SKA2 / RFU, AFF3 / Fold change vs veh, AFF3 / RFU, LMF1 / Fold change vs veh, LMF1 / RFU, IPO11 / Fold change vs veh, IPO11 / RFU, DFFB / Fold change vs veh, DFFB / RFU, FOXP1 / Fold change vs veh, FOXP1 / RFU, CARD8 / Fold change vs veh, CARD8 / RFU, STRN3 / Fold change vs veh, STRN3 / RFU, ADK / Fold change vs veh, ADK / RFU, RASSF2 / Fold change vs veh, RASSF2 / RFU, WIPF1 / Fold change vs veh, WIPF1 / RFU, LARP1B / Fold change vs veh, LARP1B / RFU, RASA1 / Fold change vs veh, RASA1 / RFU, RB1 / Fold change vs veh, RB1 / RFU, PPFIA1 / Fold change vs veh, PPFIA1 / RFU, MAT2A / Fold change vs veh, MAT2A / RFU, CCT5 / Fold change vs veh, CCT5 / RFU, WDR92 / Fold change vs veh, WDR92 / RFU, CUX1 / Fold change vs veh, CUX1 / RFU, TTC7A / Fold change vs veh, TTC7A / RFU, TMEM135 / Fold change vs veh, TMEM135 / RFU, DEPTOR / Fold change vs veh, DEPTOR / RFU, CPM / Fold change vs veh, CPM / RFU, DNAJB6 / Fold change vs veh, DNAJB6 / RFU, CACNA2D3 / Fold change vs veh, CACNA2D3 / RFU, DTX4 / Fold change vs veh, DTX4 / RFU, TFCP2 / Fold change vs veh, TFCP2 / RFU, GMCL1 /// GMCL1P1 / Fold change vs veh, GMCL1 /// GMCL1P1 / RFU, AEBP2 / Fold change vs veh, AEBP2 / RFU, SNHG1 /// SNORD22 /// SNORD25 /// SNORD26 /// SNORD27 /// SNORD28 /// SNORD29 /// SNORD31 / Fold change vs veh, SNHG1 /// SNORD22 /// SNORD25 /// SNORD26 /// SNORD27 /// SNORD28 /// SNORD29 /// SNORD31 / Fold change (Aza/veh), C12orf56 (ProbeSet 11735607_a_at) / Fold change (ACY-1035/veh), C12orf56 (ProbeSet 11735607_a_at) / Fold change (Aza/veh), FGFR1OP (ProbeSet 11751329_s_at) / Fold change (ACY-1035/veh), FGFR1OP (ProbeSet 11751329_s_at) / Fold change (Aza/veh), VPS36 (ProbeSet 11739960_a_at) / Fold change (ACY-1035/veh), VPS36 (ProbeSet 11739960_a_at) / RFU SYPL1 (11715823_x_at) / Fold change /veh SYPL1 (11715823_x_at) / RFU IGFBP7 (11715501_s_at) / Fold change /veh IGFBP7 (11715501_s_at) / RFU REEP3 (11722064_at) / Fold change /veh REEP3 (11722064_at) / RFU IGLL1 (11728026_x_at) / Fold change /veh IGLL1 (11728026_x_at): dose or concentration left out as unconfirmed", "details": "ProbeSet 11739263_x_at; LIST D", "data": [{"compound": "Nc1ncn([C@@H]2O[C@H](CO)[C@@H](O)[C@H]2O)c(=O)n1", "note": "[azacitidine]", "values": [{"measurement": "RFU, VPS4B", "result": 59.01, "unit": "RFU"}]}]}
